What was measured:
pKa measurement = format: physicochemical; settings: weak diprotic acid
LAR = LAR (Homo sapiens, UniProt P10586); settings: 22 °C and pH 6.5; originally obtained; cited from earlier work
Chain of LAR (P10586 30-1907): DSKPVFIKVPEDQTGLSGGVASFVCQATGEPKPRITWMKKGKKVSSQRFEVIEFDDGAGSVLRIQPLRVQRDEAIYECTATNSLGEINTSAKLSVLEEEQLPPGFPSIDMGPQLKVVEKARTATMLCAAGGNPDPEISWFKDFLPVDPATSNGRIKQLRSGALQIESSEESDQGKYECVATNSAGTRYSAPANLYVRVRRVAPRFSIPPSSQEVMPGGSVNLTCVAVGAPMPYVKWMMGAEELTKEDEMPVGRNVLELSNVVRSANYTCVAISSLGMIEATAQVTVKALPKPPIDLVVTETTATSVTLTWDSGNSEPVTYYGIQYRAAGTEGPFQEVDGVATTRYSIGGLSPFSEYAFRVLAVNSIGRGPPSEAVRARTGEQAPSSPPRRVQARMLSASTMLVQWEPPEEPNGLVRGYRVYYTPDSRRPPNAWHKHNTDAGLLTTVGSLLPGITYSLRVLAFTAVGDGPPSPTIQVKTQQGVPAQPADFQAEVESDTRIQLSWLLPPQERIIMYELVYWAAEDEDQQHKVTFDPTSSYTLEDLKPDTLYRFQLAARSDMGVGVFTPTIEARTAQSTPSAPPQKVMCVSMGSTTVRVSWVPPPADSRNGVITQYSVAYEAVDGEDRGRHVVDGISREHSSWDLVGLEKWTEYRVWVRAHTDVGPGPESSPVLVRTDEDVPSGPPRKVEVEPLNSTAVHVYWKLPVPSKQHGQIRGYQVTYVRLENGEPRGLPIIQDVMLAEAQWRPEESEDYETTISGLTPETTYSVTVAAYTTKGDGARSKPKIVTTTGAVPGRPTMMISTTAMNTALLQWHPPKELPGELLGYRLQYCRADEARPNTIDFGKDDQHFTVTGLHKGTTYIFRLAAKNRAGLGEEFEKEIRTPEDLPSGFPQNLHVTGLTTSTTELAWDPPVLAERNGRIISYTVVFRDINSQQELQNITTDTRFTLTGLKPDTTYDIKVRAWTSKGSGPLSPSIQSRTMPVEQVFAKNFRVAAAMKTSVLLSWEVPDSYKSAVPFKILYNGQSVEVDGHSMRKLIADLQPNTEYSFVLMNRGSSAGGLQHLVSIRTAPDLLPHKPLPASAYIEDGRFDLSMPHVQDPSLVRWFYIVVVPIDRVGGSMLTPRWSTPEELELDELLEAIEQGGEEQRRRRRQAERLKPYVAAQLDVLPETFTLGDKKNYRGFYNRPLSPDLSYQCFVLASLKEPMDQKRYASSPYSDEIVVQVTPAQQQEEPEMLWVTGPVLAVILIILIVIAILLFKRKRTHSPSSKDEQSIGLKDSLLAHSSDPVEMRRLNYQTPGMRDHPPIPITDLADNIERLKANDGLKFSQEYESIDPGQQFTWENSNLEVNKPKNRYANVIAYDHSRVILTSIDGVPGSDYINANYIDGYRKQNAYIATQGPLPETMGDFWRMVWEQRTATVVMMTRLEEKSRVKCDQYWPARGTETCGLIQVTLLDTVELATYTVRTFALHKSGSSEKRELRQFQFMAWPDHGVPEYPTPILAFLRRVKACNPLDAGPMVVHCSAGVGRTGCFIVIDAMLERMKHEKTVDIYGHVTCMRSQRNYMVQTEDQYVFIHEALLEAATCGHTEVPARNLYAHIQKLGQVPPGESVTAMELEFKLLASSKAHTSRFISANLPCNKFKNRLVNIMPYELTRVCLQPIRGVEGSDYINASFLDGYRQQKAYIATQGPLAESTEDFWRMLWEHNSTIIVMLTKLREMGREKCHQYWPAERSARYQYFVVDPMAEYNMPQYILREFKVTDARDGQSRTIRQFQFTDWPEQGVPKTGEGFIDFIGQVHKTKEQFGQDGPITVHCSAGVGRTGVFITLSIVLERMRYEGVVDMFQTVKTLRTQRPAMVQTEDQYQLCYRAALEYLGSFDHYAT

pKa (pKa measurement; pKa (first), first value): 5.42 | pKa (pKa measurement; pKa (second), second value): 6.6
Structure (SMILES): CC1(C)Cc2c(O)c(C=O)c3c(c2C1)C(=O)OC(O)C3 (stereo not drawn) [illudalic acid]
t^∞1/2 (LAR): 0.5 min
